Assay results published in article PMC11543753, “The Ortholog Receptor Or67d in Drosophila Bipectinata is able to Detect Two Different Pheromones” (Journal of Chemical Ecology, 2024).

What was measured:
[1] = system: T1, DbipOr67d (Drosophila bipectinata); experiment: single sensillum recording, spike rate of at1 neurons; format: cell-based; settings: agonist; odor 10^-3 (v/v) in dichloromethane, 0.5 s puff; D. melanogaster at1 neurons expressing DbipOr67d; also tested in wild-type D. bipectinata at1
T1 construct: with Odorant receptor coreceptor (Drosophila melanogaster)

D. melanogaster Or67d = target: T2, D. melanogaster Or67d (Drosophila melanogaster, UniProt Q9VT92); experiment: as above; format: cell-based; settings: agonist; odor 10^-3 (v/v) in dichloromethane, 0.5 s puff; native at1 neurons of wild-type CS flies
T2 construct: native receptor in at1 trichoid sensillum neurons of wild-type flies; with Odorant receptor coreceptor
T2 sequence (Q9VT92 1-391): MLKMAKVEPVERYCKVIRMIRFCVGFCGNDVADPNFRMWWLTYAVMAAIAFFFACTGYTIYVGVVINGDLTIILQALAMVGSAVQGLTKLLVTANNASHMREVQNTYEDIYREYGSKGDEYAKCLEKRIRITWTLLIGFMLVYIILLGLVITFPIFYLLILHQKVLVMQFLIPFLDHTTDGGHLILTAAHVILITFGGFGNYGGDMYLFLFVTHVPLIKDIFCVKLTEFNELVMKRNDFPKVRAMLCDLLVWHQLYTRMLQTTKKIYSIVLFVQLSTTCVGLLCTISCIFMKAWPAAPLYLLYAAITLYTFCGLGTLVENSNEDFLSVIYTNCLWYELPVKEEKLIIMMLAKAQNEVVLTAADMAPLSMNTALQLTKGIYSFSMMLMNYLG
T2 sequence (Q9VNB5 1-486 partner): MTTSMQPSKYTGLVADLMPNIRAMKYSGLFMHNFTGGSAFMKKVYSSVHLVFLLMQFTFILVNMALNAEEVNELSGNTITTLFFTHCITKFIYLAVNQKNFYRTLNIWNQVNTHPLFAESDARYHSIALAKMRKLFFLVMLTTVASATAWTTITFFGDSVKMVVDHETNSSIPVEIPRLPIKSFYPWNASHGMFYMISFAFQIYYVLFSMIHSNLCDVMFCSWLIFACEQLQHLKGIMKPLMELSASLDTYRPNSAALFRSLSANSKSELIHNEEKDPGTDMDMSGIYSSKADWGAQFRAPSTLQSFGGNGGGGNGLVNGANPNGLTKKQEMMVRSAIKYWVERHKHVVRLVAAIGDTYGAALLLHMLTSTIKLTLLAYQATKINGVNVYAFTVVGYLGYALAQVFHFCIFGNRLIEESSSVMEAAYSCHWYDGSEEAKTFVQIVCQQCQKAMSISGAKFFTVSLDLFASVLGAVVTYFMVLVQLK

CCCCCCCC/C=C\CCCCCCCCCCOC(C)=O [Z11-20:Ac, (Z)-11-eicosen-1-yl acetate]
single sensillum recording, spike rate of at1 neurons [1]: Drosophila melanogaster OSNs ectopically expressing D.bipOr67d respond to cVA and Z11-20:Ac.

CCCCCC/C=C\CCCCCCCCCCOC(C)=O [cVA, (Z)-11-octadecen-1-yl acetate]
single sensillum recording, spike rate of at1 neurons (D. melanogaster Or67d): D. melanogaster CS flies exhibited significant responses only to cVA (Fig. 1c) | single sensillum recording, spike rate of at1 neurons [1]: Drosophila melanogaster OSNs ectopically expressing D.bipOr67d respond to cVA and Z11-20:Ac.
